Drawing on US20110015371A1 (Vertex Pharmaceuticals Incorporated, priority 1994, published 2011), this text covers IC50 and Ki for 18 molecules.

Each structure is given as a SMILES string. pIC50, pKi: −log10 of the molar value. Non-standard residues stand in square brackets, D forms with d. Residues, ends and D or L forms follow the SMILES beside them. *: point of attachment. Hyp = O=C(O)[C@@H]1C[C@@H](O)CN1; Tic = O=C(O)[C@@H]1Cc2ccccc2CN1; Bn = c1ccc(C*)cc1 Bounds are passed on as bounds.

For assay [1], the system named is Human Peripheral Blood Mononuclear Cells (PBMC) or Enriched Adherent Mononuclear Cells. Briefly: Cell assay: IL-1β assay with human PBMC or enriched adherent mononuclear cells. Format: cell-based. The note with it: LPS-stimulated cells, mature IL-1β in supernatant by ELISA. The source says: IL-1β Assay with a Mixed Population of Human Peripheral Blood Mononuclear Cells (PBMC) or Enriched Adherent Mononuclear Cells
Processing of pre-IL-1S by ICE can be measured in cell culture using a variety of cell sources. Human PBMC obtained from healthy donors provides a mixed population of lymphocyte subtypes and mononuclear cells that produce a spectrum of interleukins and cytokines in response to many classes of physiological stimulators. Adherent mononuclear cells from PBMC provides an enriched source of normal monocytes for selective studies of cytokine production by activated cells.
An initial dilution series of test compound in DMSO or ethanol is prepared, with a subsequent dilution into RPMI-10% FBS media (containing 2 mM L-glutamine, 10 mM HEPES, 50 U and 50 ug/ml pen/strep) respectively to yield drugs at 4× the final test concentration containing 0.4% DMSO or 0.4% ethanol. The final concentration of DMSO is 0.1% for all drug dilutions. A concentration titration which brackets the apparent Ki for a test compound determined in an ICE inhibition assay is generally used for the primary compound screen.
We generally test 5-6 compound dilutions and have performed the cellular component of the assay in duplicate, with duplicate ELISA determinations on each cell culture supernatant.
Buffy coat cells isolated from one pint human blood (yielding 40-45 ml final volume plasma plus cells) are diluted with media to 80 ml and LeukoPREP separation tubes (Becton Dickinson) are each overlaid with 10 ml of cell suspension. After 15 min centrifugation at 1500-1800×g, the plasma/media layer is aspirated and then the mononuclear cell layer is collected with a Pasteur pipette and transferred to a 15 ml conical centrifuge tube (Corning). Media is added to bring the volume to 15 ml, gently mix the cells by inversion and centrifuge at 300×g for 15 min. Resuspend the PBMC pellet in a small volume of media, count cells and adjust to 6×10^6 cells/ml.
For the cellular assay, add 1.0 ml of the cell suspension to each well of a 24-well flat bottom tissue culture plate (Corning), 0.5 ml test compound dilution and 0.5 ml LPS solution (Sigma #L-3012; 20 ng/ml solution prepared in complete RPMI media; final LPS concentration 5 ng/ml). The 0.5 ml additions of test compound and LPS are usually sufficient to mix the contents of the wells. Three control mixtures are run per experiment, with either LPS alone, solvent vehicle control, and/or additional media to adjust the final culture volume to 2.0 ml. The cell cultures are incubated for 16-18 hr at 37° C. in the presence of 5% CO2.
At the end of the incubation period, cells are harvested and transferred to 15 ml conical centrifuge tubes. After centrifugation for 10 min at 200×g, supernatants are harvested and transferred to 1.5 ml Eppendorf tubes. It may be noted that the cell pellet may be utilized for a biochemical evaluation of pre-IL-1S and/or mature IL-1β content in cytosol extracts by western blotting or ELISA with pre-IL-1β specific antisera.
PBMC are isolated and prepared as described above. Media (1.0 ml) is first added to wells followed by 0.5 ml of the PBMC suspension. After a one hour incubation, plates are gently shaken and nonadherent cells aspirated from each well. Wells are then gently washed three times with 1.0 ml of media and final resuspended in 1.0 ml media. The enrichment for adherent cells generally yields 2.5−3.0×10^5 cells per well. The addition of test compounds, LPS, cell incubation conditions and processing of supernatants proceeds as described above.
We have used Quantikine kits (R&D Systems) for measurement of mature IL-1β. Assays are performed according to the manufacturer's directions. Mature IL-1β levels of about 1-3 ng/ml in both PBMC and adherent mononuclear cell positive controls are observed. ELISA assays are performed on 1:5, 1:10 and 1:20 dilutions of supernatants from LPS-positive controls to select the optimal dilution for supernatants in the test panel.
In general terms: ELISA stands for enzyme-linked immunosorbent assay.

Another assay addresses T1, ICE (Homo sapiens, UniProt P29466).
T1 sequence (P29466 120-297 limits assumed): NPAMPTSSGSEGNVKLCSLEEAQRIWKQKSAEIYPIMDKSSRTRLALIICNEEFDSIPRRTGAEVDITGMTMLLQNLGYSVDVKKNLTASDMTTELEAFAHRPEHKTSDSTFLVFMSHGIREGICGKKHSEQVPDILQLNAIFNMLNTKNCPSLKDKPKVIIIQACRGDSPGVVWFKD
T1 sequence (P29466 317-404 limits assumed): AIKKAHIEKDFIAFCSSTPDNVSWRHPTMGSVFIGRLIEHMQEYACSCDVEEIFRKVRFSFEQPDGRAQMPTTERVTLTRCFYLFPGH
Briefly: Enzyme assay with UV-visible substrate (Succinyl-Tyr-Val-Ala-Asp-pNitroanilide). Format: biochemical. Here is the method: 1. Enzyme Assay with UV-Visible Substrate
This assay is run using an Succinyl-Tyr-Val-Ala-Asp-pNitroanilide substrate. Synthesis of analogous substrates is described by L. A. Reiter (Int. J. Peptide Protein Res. 43, 87-96 (1994)). The assay mixture contains:
The visible ICE assay is run in a 96-well microtiter plate. Buffer, ICE and DMSO (if inhibitor is present) are added to the wells in the order listed. The components are left to incubate at room temperature for 15 minutes starting at the time that all components are present in all wells. The microtiter plate reader is set to incubate at 37° C. After the 15 minute incubation, substrate is added directly to the wells and the reaction is monitored by following the release of the chromophore (pNA) at 405-603 nm at 37° C. for 20 minutes. A linear fit of the data is performed and the rate is calculated in mOD/min. DMSO is only present during experiments involving inhibitors, buffer is used to make up the volume to 100 μl in the other experiments.
For determination of enzyme inhibition constants (Ki) or the mode of inhibition (competitive, uncompetitive or noncompetitive), the rate data determined in the enzyme assays at varying inhibitor concentrations are computer-fit to standard enzyme kinetic equations (see I. H. Segel, Enzyme Kinetics, Wiley-Interscience, 1975).

Where [2] appears, read: Homo sapiens, PBMC, Example 4 table.
Setting [3] is: Homo sapiens, PBMC, Example 6 table.

Consider `O=C[C@H](CC(=O)O)NC(=O)[C@@H]1CCCN2C(=O)CC[C@H](NC(=O)CCc3ccccc3)C(=O)N12` [Compound 47a, [3S, (1S,9S)]3-(6,10-Dioxo-octahydro-9-(3-phenylpropionylamino)-6H-pyridazino[1,2-a][1,2]diazepine-1-carboxamido)-4-oxobutanoic acid], for which the pIC50 (as a rule, the IC50 on a negative log10 scale, so that one unit is a factor of ten) in assay [1] (setting [2]) was 5.68. The pKi (usually the Ki on a negative log10 scale, so that one unit is a factor of ten) at ICE (Example 4 table) is 7.72. The matching figures for `O=C[C@H](CC(=O)O)NC(=O)Cn1c(CCc2ccccc2)ccc(NC(=O)CCc2ccccc2)c1=O` [Compound 54c, 3(S)3-(1,2-Dihydro-2-oxo-6-phenethyl-3(3-phenyl-propionyl)amino-1-pyridyl)acetylamino-4-oxobutanoic acid]: less than 4.72 and 5.92.

Take `CC(=O)N[C@@H](Cc1ccc(O)cc1)C(=O)Nc1ccc(Cc2ccccc2)n(CC(=O)N[C@H](C=O)CC(=O)O)c1=O` [Compound 54i, 3(S)3-(3-(2-Acetyl-L-tyrosinyl)amino-6-benzyl-1,2-dihydro-2-oxo-1-pyridyl)acetylamino-4-oxobutanoic acid]: the pIC50 in assay [1] (setting [2]) was 5.62. In addition, the pKi at ICE (Example 4 table) is 7.27. `O=C[C@H](CC(=O)O)NC(=O)Cn1c(Cc2ccccc2)ccc(NC(=O)CCCc2ccccc2)c1=O` [Compound 54l, 3(S)3-(6-Benzyl-1,2-dihydro-2-oxo-3-(4-phenylbutyryl)carbonylamino-1-pyridyl)acetylamino-4-oxobutanoic acid]: in assay [1] (Example 4 table), the negative-log IC50 (pIC50) is 5.15. Moreover, the pKi on ICE (Example 4 table) was 6.67.

In assay [1] (Example 4 table), `CC(C)[C@H](NC(=O)OCc1ccccc1)C(=O)N[C@@H](C)C(=O)N[C@@H](CC(=O)O)C(=O)c1nc2ccccc2o1` [Compound 63, (3S)N-(N-Benzyloxycarbonyl-(S)-valinyl-(S)-alaninyl)-3-amino-4-(2-benzoxazolyl)-4-oxobutanoate] gave a pIC50 of 5.39. The same molecule had a pKi on ICE (Example 4 table) of 6.07. In assay [1] (setting [2]), `COc1cccc2nc(C(=O)[C@H](CC(=O)O)NC(=O)[C@H](C)NC(=O)[C@@H](NC(=O)[C@H](Cc3ccc(O)cc3)NC(C)=O)C(C)C)oc12` [Compound 69a, (3S)N-(N-Acetyl-(S)-tyrosinyl-(S)-valinyl-(S)-alaninyl)-3-amino-4-(2-(7-methoxybenzoxazolyl))-4-oxobutanoate] gave a pIC50 of 6.13. The molecule also had a pKi on ICE (Example 4 table) of 7.96. Regarding `COc1cccc2nc(C(=O)[C@H](CC(=O)O)NC(=O)[C@@H]3C[C@@H](Oc4ccccc4)CN3C(=O)[C@@H](NC(C)=O)C(C)C)oc12` [Compound 86, N-Acetyl-(S)-valinyl-(4-(S)-phenoxy)prolinyl-3(S)-amino-4-(7-methoxybenzoxazol-2-yl)-4-oxo-butanoic acid], the pIC50 in assay [1] (setting [3]) is 5.40. Further, at ICE (Example 6 table), the pKi is 6.76. The matching figures for `COc1cccc2nc(C(=O)[C@H](CC(=O)O)NC(=O)[C@@H]3C[C@@H](Oc4ccccc4)CN3C(C)=O)oc12` [Compound 87, N-Acetyl(4-(R)-phenoxy)prolinyl-3(S)-amino-4-(7-methoxybenzoxazol-2-yl)-4-oxo-butanoic acid]: 4.46 and 5.14.

Molecule `O=C(O)C[C@H](NC(=O)Cn1c(Cc2ccccc2)ccc(NC(=O)CCc2ccccc2)c1=O)C(=O)COCc1ccccc1Cl` [Compound 90, N-2-(6-Benzyl-1,2-dihydro-2-oxo-3-(3-phenylpropionyl)amino-1-pyridyl)acetyl-3-amino-5-(2-chlorobenzyloxy)-4-oxo-pentanoic acid] showed a pIC50 in assay [1] (setting [3]) of 5.21. On ICE (Example 6 table), this molecule had a pKi of 6.38. The matching figures for `O=C(O)C[C@H](NC(=O)Cn1c(Cc2ccccc2)ccc(NC(=O)CCc2ccccc2)c1=O)C(=O)c1ncc(-c2c(Cl)cccc2Cl)s1` [Compound 91]: less than 4.60 and 6.59. The molecule `O=C[C@H](CC(=O)O)NC(=O)[C@@H]1CCc2ncc(NC(=O)CCc3ccccc3)c(=O)n21` [Compound 98, 4-Oxo-(3S)-{[4-oxo-3-(3-phenyl-propionylamino)-4,6,7,8-tetrahydro-pyrrolo[1,2-a]pyrimidine-(6S)-carbonyl]-amino}-butyric acid] showed a negative logarithm of the IC50 (pIC50) in assay [1] (setting [3]) of 5.40. At ICE (Example 6 table), this molecule gave a pKi of 6.27. The matching figures for `COc1cccc2nc(C(=O)[C@H](CC(=O)O)NC(=O)[C@@H]3CCc4ncc(NC(=O)CCc5ccccc5)c(=O)n43)oc12` [Compound 102b, 4-(7-methyoxy-benzoxazol-2-yl)-4-oxo-(3S)-{[4-oxo-3-(3-phenyl-propionylamino)-4,6,7,8-tetrahydro-pyrrolo[1,2-a]pyrimidine-(6S)-carbonyl]-amino}-butric acid]: 5.76 and 6.54. The matching figures for `O=C[C@H](CC(=O)O)NC(=O)CN1C(=O)[C@@H](NC(=O)CCc2ccccc2)CNc2ccccc21` [Compound 106a]: 4.52 and 5.64. The matching figures for `O=C[C@H](CC(=O)O)NC(=O)CN1C(=O)[C@@H](NC(=O)CCc2ccccc2)CN(Cc2ccccc2)c2ccccc21` [Compound 106c, 3(S)-{2-[5-Benzyl-2-oxo-3-(3(S)-phenylpropionylamino)-2,3,4,5-tetrahydrobenzo[b][1, 4]diazepin-1-yl]-acetylamino}-4-oxobutyric acid]: less than 4.52 and 5.42.

`O=C(O)C[C@H](NC(=O)[C@@H]1CCCN1C(=O)c1ncc(CCCc2ccccc2)[nH]1)C(=O)c1ncc(-c2c(Cl)cccc2Cl)o1` [Compound 157]: the pKi at ICE (Example 6 table) is 6.59.

For `CC(=O)N[C@H](C(=O)N1C[C@H](OCc2ccccc2)C[C@H]1C(=O)N[C@H](C=O)CC(=O)O)C(C)C` [Compound 158] (Ac-Val-[Hyp](Bn)-Asp-aldehyde), the pKi at ICE (Example 6 table) is 5.96. On the same count and under the same terms, for `CC(=O)N[C@@H](Cc1ccc(O)cc1)C(=O)N[C@H](C(=O)N1C[C@H](Oc2ccccc2)CC1C(=O)N[C@@H](CC(=O)O)C(=O)CSCc1ccccc1Cl)C(C)C` (some centres unmarked) [Compound 161] the value was 7.96.

At ICE (Example 2 table), `CC(=O)N[C@@H](Cc1ccc(O)cc1)C(=O)N[C@H](C(=O)N1Cc2ccccc2C[C@H]1C(=O)N[C@H](C=O)CC(=O)O)C(C)C` [L, N-[2-(N-Acetyl-tyrosinyl-valinyl)-(S)-1,2,3,4-tetrahydroisoquinoline-3-carbonyl]-3-amino-oxobutanoic acid] (Ac-YV[Tic]D-aldehyde) showed a pKi of 7.85.
